{
  "source": "patent US20230019058A1",
  "about": "“METHOD FOR THE TREATMENT OF VIRAL INFECTIONS” (Softhale NV, priority 2020, published 2023)",
  "origin": "cited, not measured here",
  "key": {"SARS-CoV-2": {"system": "SARS-CoV-2", "conditions": "reported by S. Matsuyama et al., read-out: effective concentration to block SARS-CoV-2 replication (EC90); cited from earlier work"}, "human coronavirus": {"system": "human coronavirus", "conditions": "cultured cells; reported by S. Matsuyama et al.; cited from earlier work"}, "[1]": {"system": "respiratory syncytial virus", "conditions": "reported by S. Matsuyama et al.; cited from earlier work"}, "influenza virus": {"system": "influenza virus", "conditions": "reported by S. Matsuyama et al.; cited from earlier work"}},
  "data": [
    {"smiles": "CC(C)C(=O)OCC(=O)[C@@]12O[C@H](C3CCCCC3)O[C@@H]1C[C@H]1[C@@H]3CCC4=CC(=O)C=C[C@]4(C)[C@H]3[C@@H](O)C[C@@]12C", "note": "[ciclesonide, (11β, 16α)-16, 17-[[(R)-cyclohexylmethylene]bis(oxy)]-11-hydroxy-21-(2-methyl-1-oxopropoxy)-pregna-1,4-diene-3,20-dione]", "values": [
      {"measurement": "EC90", "setting": "SARS-CoV-2", "value": 6.3, "unit": "µM"},
      {"measurement": "suppression of human coronavirus replication", "setting": "human coronavirus", "value": "suppressed human coronavirus replication"},
      {"measurement": "suppression of replication of respiratory syncytial virus", "setting": "[1]", "value": "did not suppress"},
      {"measurement": "suppression of replication of influenza virus", "setting": "influenza virus", "value": "did not suppress"}
    ]}
  ]
}
